Test results from patent publication US20130196865A1, “METHOD FOR SELECTING AN IPS CELL” (THE GENERAL HOSPITAL CORPORATION, priority 2010, published 2013).

Key:
[1] = tested on: Dlk1-Dio3 locus (IG-DMR) methylation in iPSCs; assay: Derivation of iPS cells in the presence of ascorbic acid, DNA methylation at the Dlk1-Dio3 locus; assay type: cell-based, mouse
Description: These are 1) repression of an enzyme called Dnmt3a or 2) addition of ascorbic acid (Vitamin C) to do cell culture media during reprogramming (FIG. 15).
MEFs with a doxycycline-inducible polycistronic reprogramming cassette in their genome (Stadtfeld, M. et al. A reprogrammable mouse strain from gene-targeted embryonic stem cells. Nature methods 7(1):53-5) were reprogrammed into iPS cells by culture in either doxycycline-containing ESC media or doxycycline-containing ESC media with 50 ng/μl ascorbic acid (Sigma A4544). Doxycline was withdrawn after 10-14 days of culture and emerging iPS cell colonies picked and expanded in regular ESC culture media (without doxycycline, without ascorbic acid). Pluripotency of established iPS cell clones was confirmed by marker gene expression and blastocyst injections.
Genomic DNA was isolated using the DNeasy Blood and Tissue Kit (Qiagen) and bisulfite converted using the EpiTect Bisulfite Kit (Qiagen) with 100-1000 ng input. Converted DNA was used for PCR to amplify the regulatory IG-DMR region and PCR products were sequenced using the Pyrosequencing PSQ96 HS System (Biotage AB) (Stadtfeld, M. et al. Aberrant silencing of imprinted genes on chromosome 12qF1 in mouse induced pluripotent stem cells).

[2] = tested on: Gtl2^off and Gtl2^on iPSCs, ESCs; assay: Retinoic acid in vitro differentiation of iPSCs and ESCs, qPCR; assay type: cell-based, mouse; conditions: for Meg3/Gtl2 and Rian expression during differentiation: RA 5 days
Description: To assess if silencing of Meg3/Gtl2 might be resolved during differentiation, Gtl2^off and Gtl2^on iPSCs as well as ESCs were exposed to the differentiation-stimulating agent retinoic acid (RA) for 5 days. […] The expression of imprinted genes outside of chromosome 12qF1 was not affected (FIG. 3f, bottom, and FIG. 10)
(§1) cDNA was produced with the First Strand cDNA Synthesis Kit (Roche) using 1 μg of total RNA input. Real-time quantitative PCR reactions were set up in triplicate using 5 μl of cDNA (1:100 dilution) with the Brilliant II SYBR Green QPCR Master Mix (Stratagene) and run on a Mx3000P QPCR System (Stratagene).

[3] = tested on: development of all-iPSC embryos/pups; assay: 4n blastocyst injection of VA-rescued iPSC clone; assay type: in vivo, mouse
Description: 2n and 4n blastocyst injections were performed as described before (Eggan, K et al., PNAS USA 98(11):6209 (2001)). Briefly, female BDF1 mice were super-ovulated by intraperitoneal injection of PMS and hCG and mated to BDF1 stud males. Zygotes were isolated from females with a vaginal plug 24 hour after hCG injection. Zygotes for 2n injections were in vitro cultured for 3 days in vitro in KSOM media, blastocysts were identified, injected with ESCs or iPSCs and transferred into pseudopregnant recipient females. For 4n injections, zygotes were cultured overnight until they reached the 2-cell stage, at which point they were electrofused.

[4] = tested on: Meg3/Gtl2 expression in Gtl2^off iPSC clone #45 subclones; assay: Valproic acid treatment of Gtl2off iPSC subclones, Meg3/Gtl2 expression by qPCR; assay type: cell-based, mouse
Description: as §1

[5] = tested on: chromatin marks at the Gtl2 promoter; assay: Chromatin immunoprecipitation at the Meg3/Gtl2 locus after VA rescue; assay type: cell-based, mouse; conditions: VA-rescued clone
Description: 20 million iPSCs, ESCs or MEFs were fixed with 1% formaldehyde for 10 minutes at room temperature (RT) and then lysed in 1 ml lysis buffer (50 mM Tris-HCl, pH 8.0, 10 mM EDTA, 1% SDS, protease inhibitors) for 20 minutes on ice. The lysate was split into three tubes and sonicated using Bioruptor for five times five minutes at high intensity, 30 sec on-30 sec off. After 10 minutes centrifugation, the supernatant was precleared for 1 hour at 4° C. with agarose beads preblocked with BSA (1 mg BSA for 10 ml beads) in IP Buffer (50 mMM Tris-HCl, pH8, 150 mM NaCl, 2 mM EDTA, 1% NP-40, 0.5% Sodium Deoxycholate, 0.1% SDS, protease inhibitors). […] of precleared chromatin per reaction diluted in 1 ml IP Buffer in presence of 2 ug antibody were used for each immunoprecipitation reaction according to manufacturer's protocol. The antibodies used for this study were: anti-aCH3 (06-5 99 Millipore), anti-acH4 (06-866, Millipore), anti-dimethyl K4 of H3 (07-030, Millipore), anti-trimethyl K27 of H3 (ab6002, Abcam) and normal rabbit IgG (Millipore). The precipitate was purified using Qiaquick PCR purification kit and was analyzed by qPCR using Brilliant II SYBR Green qPCR Master Mix (600828, Agilent Technologies) using the sequence specific primer sets. Gtl2: 5′-[…]-3′ (FWD) and 5′-[…]3′ (REV) and Pou5f1: 5′-[…]-3′ (FWD) and 5′-[…]-3′ (REV).

For `O=C1O[C@H]([C@@H](O)CO)C(O)=C1O` [ascorbic acid], the “abnormal methylation in iPSCs” value ([1]; FIG. 15b) was “prevents abnormal methylation” and the “frequency of "normal iPSCs"” value ([1]; ascorbic acid added to culture media during reprogramming) was “dramatically increased”.
For `CC1=C(/C=C/C(C)=C/C=C/C(C)=C/C(=O)O)C(C)(C)CCC1` [retinoic acid, all-trans retinoic acid], the “Meg3/Gtl2 and Rian expression during differentiation” value ([2]; Gtl2^off iPSCs) was “stable silencing”, the “Dlk1 expression upon differentiation” value ([2]; Gtl2^off iPSCs, RA treated) was “express high levels” and the “Meg3/Gtl2 and Rian expression during differentiation” value ([2]; Gtl2^on iPSCs and ESCs) was “readily upregulated”. The Pou5f1 expression ([2]; all RA-treated clones, 5 days) was “downregulation of Pou5f1”.
With `CCCC(CCC)C(=O)O` [valproic acid] the “full-term development after 4n blastocyst injection” value ([3]; VA-rescued clone, not seen with parental iPSCs) was “supported the development of several full-term pups”, the “phenotype of full-term pups” value ([3]; pups from VA-rescued clone) was “severely overgrown, however, and hence non-viable” and the “subclones exhibiting increased Meg3/Gtl2 expression” value ([4]; Gtl2^off iPSC subclones treated with VA) was “two out of 21”. The “Meg3/Gtl2 expression level of rescued clone” value ([4]; one VA-treated iPSC clone, versus ESCs) was “comparable to ESCs” and the “activation-associated chromatin marks at the Meg3/Gtl2 locus” value [5] was “re-appearance of H3K4 methylation and H3 acetylation”.
